Active and inactive are the calls of the source.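 How the source made its calls: active means compounds lowering cell viability signal with fitted half-maximal concentration at most ten times their highest tested concentration; inconclusive means flat fit with 30 to 70% signal loss, or poor fit; inactive means the rest.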
Each molecule was assayed on HEK293T viability, CellTiter-Glo ATP luminescence, 48 h (assay: cytotoxicity in HEK293T cells – cell-based, CellTiter-Glo luminescence, cherry-picks, cytotoxicity control for LMP1 NF-kB inhibitor project, dose response (AID 504861)).
Molecule `COc1ccccc1-c1nc(-c2ccccn2)no1` has an AC50 of 5.63 µM.
`CCCCC(=O)NC(c1ccc(OC)c(OC)c1)c1ccc2cccnc2c1O` (stereo not drawn) was tested, and the AC50 was 4.63 µM.
Work on `C/C(=N/NC(=O)c1ccc(C(C)(C)C)cc1)c1ccccn1` yielded an AC50 of 3.38 µM.
For `CCN(CC)C(=O)c1ccc(NC(=O)Nc2ccccc2F)cc1`, the AC50 was 2.41 µM.
Molecule `CCN(CC)CCC(=O)N1C/C(=C/c2ccccc2)C(=O)/C(=C\c2ccccc2)C1` has an AC50 of 3.88 µM.
`COc1cccc(/C=N/Nc2nccnc2Cl)c1O` was tested, and the AC50 was 3.79 µM.
`COc1ccccc1[C@]1(C)ON(c2ccccc2C(F)(F)F)C1=O` was tested, and the AC50 was 26.4 µM.
`CCC(=O)NC(c1ccc(C)cc1)c1ccc2cccnc2c1O` (stereo not drawn) was tested, and the AC50 was 4.33 µM.
Molecule `CCCCC(=O)NC(c1ccc(Cl)cc1)c1ccc2cccnc2c1O` (stereo not drawn) has an AC50 of 4.35 µM.
In the case of `CCN(CC)S(=O)(=O)c1cccc(NC(=O)Nc2cccc(C(F)(F)F)c2)c1`, the AC50 is reported as 19.1 µM.
For `c1ccc(C2=NNC(=NC3CC3)SC2)cc1`, the AC50 was 12.1 µM.
With `Oc1ccccc1/C=N/Nc1nccnc1Cl` the AC50 was > 26 µM (inactive).
`CCCCC(=O)NC(c1ccc(OC)cc1)c1ccc2cccnc2c1O` (stereo not drawn) showed an AC50 of 16.2 µM.
Molecule `CCOc1ccc(/C=C/[N+](=O)[O-])c2ccccc12` has an AC50 of 11.8 µM.
For `C#CCN(C[C@@H]1[C@@H](OC(=O)NCCCCCC)[C@@H](OC(=O)NCCCCCC)Cn2c(=O)ccc(=O)n21)S(=O)(=O)c1ccc(C)cc1`, the AC50 was 4.1 µM.
`CCCc1sc(N/N=C/c2ccccn2)nc1-c1ccc(Br)cc1` showed an AC50 of 21.4 µM.
With `Nc1ccc(C(=O)N/N=C\c2cc(N=Nc3cccc4ccccc34)ccc2O)cc1` the AC50 was 26.5 µM.
With `O=C1c2ccccc2C(Nc2ccc(Cl)cc2)N1CCN1CCOCC1` (stereo not drawn) the AC50 was > 26 µM (inactive).
With `Oc1ccc2ccccc2c1N=Nc1ccccn1` the AC50 was 3.42 µM.
Work on `CCNC(=S)NNC(=O)c1cc(-c2ccc(OCC)cc2)nc2ccccc12` yielded an AC50 of 23 µM.
`C(=N\Nc1nc2ccccc2[nH]1)/c1cccc2cccnc12` showed an AC50 of 3.24 µM.
In the case of `CCC(NC(=O)Nc1nnc(C(F)(F)F)s1)(C(F)(F)F)C(F)(F)F`, the AC50 is reported as 9.8 µM.
For `CCOC(=O)c1cn2nc(N3CCCCC3)ccc2n1`, the AC50 was > 26 µM (inactive).
With `C#Cc1cc(N2CCN(C(=O)c3ccoc3)CC2)n2nc(-c3cccc(Cl)c3)cc2n1` the AC50 was 5.11 µM.
Molecule `c1ccc(CCNc2nc(-c3ccccn3)nc3ccccc23)cc1` has an AC50 of 1.13 µM.
Molecule `CCC(=O)NC(c1ccc(Cl)cc1Cl)c1ccc2cccnc2c1O` (stereo not drawn) has an AC50 of 8.21 µM.
With `Brc1ccc(-c2nc(-c3ccccn3)no2)o1` the AC50 was > 26 µM (inactive).
Work on `NC(=S)NN=Cc1nccc2c(C(F)(F)F)cccc12` yielded an AC50 of 5.67 µM.
With `Cc1ccc(C(=O)Nc2ccc3c(c2)OCCO3)c(Cl)c1` the AC50 was > 26 µM (inactive).
For `CC(=NNc1nc2ccccc2o1)c1ncccn1`, the AC50 was 16 µM.
For `CCN1CCN(Cc2ccc(NC(=O)c3ccc(C)c(NC(=O)c4c[nH]c5cc(C(F)(F)F)ccc5c4=O)c3)cc2C(F)(F)F)CC1`, the AC50 was 4.09 µM.
For `Cn1c(/C=C/c2ccccc2)nc2ccccc21`, the AC50 was 9.76 µM.
`CC(=O)OC1CCC2(C)C(CCC3C4CC=C(C(C)=O)C4(C)OC(=O)CC32)C1` (stereo not drawn) gave an AC50 of 4.45 µM.
Work on `CCCc1nc2ccc(Br)cc2c(=O)n1-c1ccc([N+](=O)[O-])c(C(F)(F)F)c1` yielded an AC50 of 4.2 µM.
`CC(=NNC(=S)N1CCCCC1)c1cccc(C)n1` was tested, and the AC50 was > 26 µM (inactive).
Work on `Cc1ccc(C(=O)/C=C/C(=O)c2ccc(C)cc2)cc1` yielded an AC50 of 7.08 µM.
`CCCC(=O)NC(c1ccc(C)cc1)c1ccc2cccnc2c1O` (stereo not drawn) showed an AC50 of 4.45 µM.
Work on `O=C(c1ccccc1)C(CCC(CN1CCOCC1)C(=O)c1ccccc1)CN1CCOCC1` (stereo not drawn) yielded an AC50 of 2.57 µM.
`O=C(N/N=C/c1sc2ccccc2c1O)c1cccc2ccccc12` gave an AC50 of 4.96 µM.
`CC(=O)NC(c1ccc(Cl)cc1Cl)c1ccc2cccnc2c1O` (stereo not drawn) was tested, and the AC50 was 1.63 µM.
In the case of `CC(=NNc1nc2ccccc2s1)c1ncccn1`, the AC50 is reported as 13.8 µM.
In the case of `CCc1cc2c(N3CCN(c4ccccc4)CC3)ncnc2s1`, the AC50 is reported as 26.4 µM.
`COc1ccc(N/N=C/c2c(C(=O)O)ccc3ccccc23)cc1` was tested, and the AC50 was 4.11 µM.
`O=C(N/N=C/c1c(O)ccc2ccccc12)c1ccc(Br)o1` showed an AC50 of 4.46 µM.
`COc1cccc(N=Nc2ccc(O)c3ncccc23)c1` showed an AC50 of 2.88 µM.
`O=C(N/N=C/c1ccc[nH]1)c1ccc(COc2cccc3cccnc23)cc1` showed an AC50 of 3.99 µM.
In the case of `O=C(CCl)N(c1ccc(Cl)cc1)c1c[nH]c2ccccc12`, the AC50 is reported as 1.19 µM.
With `Cn1nnnc1N=N/C(=N/Nc1ccccc1)c1ccccc1` the AC50 was 1.23 µM.
With `COc1ccc(C(NC(C)=O)c2cc(Cl)c3cccnc3c2O)cc1` (stereo not drawn) the AC50 was 4.88 µM.
Work on `CCC(=O)NC(c1cc(Cl)c2cccnc2c1O)C1CC1` (stereo not drawn) yielded an AC50 of 9.86 µM.
Molecule `Cc1ccc(CSc2nc3ccncc3[nH]2)cc1` has an AC50 of 20.9 µM.
`CCC(C)Nc1nc(-c2ccccn2)nc2ccccc12` (stereo not drawn) gave an AC50 of 4.04 µM.
In the case of `COc1ccc(O)c(/C=N/NC(=O)c2ccc(OCc3cccc(Br)c3)cc2)c1`, the AC50 is reported as 4.45 µM.
In the case of `CN(Cc1cnc2nc(N)nc(N)c2n1)c1ccc(C(=O)N[C@@H](CCC(=O)O)C(=O)O)cc1`, the AC50 is reported as 0.016 µM.
Molecule `C=CCNC(=S)N/N=C(\C)c1ccccn1` has an AC50 of 2.06 µM.
`CC(=NNC(=S)Nc1ccc(C)cc1)c1ccccn1` was tested, and the AC50 was 0.624 µM.
With `COc1ccc(C(=O)Nn2c(SCC(=O)NC3CCCCC3)nc3ccccc3c2=O)cc1` the AC50 was > 26 µM (inactive).
Molecule `c1ccn2cc(-c3ccc4c(c3)OCCO4)nc2c1` has an AC50 of 16.1 µM.
In the case of `CCN(CC)c1ccc(/C=N/NC(=O)c2c(Cl)cnn2C)c(O)c1`, the AC50 is reported as 2.81 µM.
Molecule `COc1cccc(/C=N/Nc2nc3ccccc3[nH]2)c1O` has an AC50 of 5.26 µM.
In the case of `C=CCn1c(O)c(N=NC(=S)Nc2cccc(C)c2)c2ccccc21`, the AC50 is reported as > 26 µM (inactive).
`COc1ccc2c(c1)/C(=C/c1cnc[nH]1)C(=O)N2` showed an AC50 of 23.1 µM.
For `Cc1ccc2nc(-c3ccccn3)[nH]c2c1`, the AC50 was 21.6 µM.
`CSc1ccc2c(c1)C(N1CCN(C)CC1)Cc1ccccc1S2` (stereo not drawn) was tested, and the AC50 was 15.4 µM.
`COc1cc([C@@H]2c3cc4c(cc3[C@@H](O[C@@H]3O[C@@H]5CO[C@@H](C)O[C@H]5[C@H](O)[C@H]3O)[C@H]3COC(=O)[C@H]23)OCO4)cc(OC)c1O` was tested, and the AC50 was 26.5 µM.
Molecule `CCN(CC)c1ccc(/C=N/Nc2nc3ccccc3[nH]2)c(O)c1` has an AC50 of 4.51 µM.
For `O=C(N/N=C/c1c(O)ccc2ccccc12)c1cccnc1`, the AC50 was 8.72 µM.
`Cc1cc(C)nc(SCc2ccc(C(=O)N/N=C/c3cccc(O)c3O)cc2)n1` was tested, and the AC50 was 20.3 µM.
Molecule `Oc1cccc2ccc(Nc3ccccn3)nc12` has an AC50 of 8.91 µM.
`COc1cc(C=C2CCCC(=Cc3ccc(OCC4CO4)c(OC)c3)C2=O)ccc1OCC1CO1` (stereo not drawn) gave an AC50 of 24.3 µM.
With `CC(=O)NC(c1ccc(Cl)cc1)c1ccc2cccnc2c1O` (stereo not drawn) the AC50 was 1.16 µM.
`CCOc1ccc(OCC(=O)Nc2nccs2)cc1` gave an AC50 of 11.3 µM.
`COc1ccc(C(=O)C(CN2CCOCC2)c2ccccc2)cc1F` (stereo not drawn) gave an AC50 of 8.32 µM.
`COc1cccc(/C=N/NC(=O)c2[nH]nc3c2CCc2ccccc2-3)c1O` was tested, and the AC50 was 3.21 µM.
`CCCCCN=Cc1c(C)[nH]n(-c2nc3ccccc3s2)c1=O` was tested, and the AC50 was 1.33 µM.
With `C/C(=N\NC(=O)c1cccc(Br)c1)c1ccccn1` the AC50 was 3.59 µM.
For `CCN1CCN(Cc2ccc(NC(=O)c3ccc(C)c(/C=C/c4cnc(Nc5cc(N6CCNCC6)nc(C)n5)cn4)c3)cc2C(F)(F)F)CC1`, the AC50 was 14.3 µM.
For `C#CCn1c(S(=O)(=O)Cc2ccc(F)cc2)nc(-c2ccccc2)c1-c1ccccc1`, the AC50 was > 26 µM (inactive).
With `COc1ccc(/C=C/c2nc3ccccc3n2C)cc1` the AC50 was 2.27 µM.
Molecule `CCOC(=O)c1c(C)[nH]c(C(=O)N/N=C\c2ccccc2O)c1C` has an AC50 of 4.09 µM.
In the case of `CC1(C)N=C(N)N=C(N)N1c1ccc(CCCCc2ccccc2)cc1`, the AC50 is reported as 0.406 µM.
For `CCCCC(=O)NC(c1ccc(Cl)cc1Cl)c1ccc2cccnc2c1O` (stereo not drawn), the AC50 was 3.16 µM.
Work on `COc1ccc(/C=N/Nc2cc(C)nc3ccc(OC)cc23)c(OC)c1` yielded an AC50 of 5.04 µM.
